Publication PMC10288505, “Photoswitchable Calixarene Activators for Controlled Peptide Transport across Lipid Membranes” (Journal of the American Chemical Society, 2023)
Each block holds one compound with its values, some of them ahead of it.

How the values were obtained:
[1] = Carboxyfluorescein (CF) dye efflux assay, counterion-activated peptide transport; type: biochemical; conditions: for CF transport out of the liposomes on addition of peptide alone: peptide 4 µM, no activator, LUV 15 µM lipid with 50 mM CF encapsulated
Procedure: Dynamic light scattering (DLS) control experiments also confirmed liposome integrity under the experimental conditions employed in the different membrane transport assays, which ruled out potential membrane disruption interferences (Figure S34). Established dye efflux assays were performed using the carboxyfluorescein (CF) dye encapsulated at self-quenching concentrations in egg phosphatidylcholine large unilamellar vesicles (EYPC-LUV⊃CF).[26],[27],[29],[45] In these experiments, the fractional release of trapped CF (or fractional transport activity, Y), triggered by the addition of counterion activators and peptides, is monitored by time-resolved fluorescence spectroscopy and calibrated by the addition of Triton X-100 (Figure S35).
The studies were performed with both 1 and 2 in the E and Z configurations in the presence of fixed concentrations of liposomes and cationic peptides. […] Likewise, the addition of peptides alone or nonbinding anionic peptides in the presence of calixarene activators also results in unmodified fluorescence signal, confirming that the formation of the calixarene–peptide complex is critical to activate the transport process. […] This approach retrieves the Ymax (i.e., maximal CF release relative to liposome lysis after the addition of Triton X-100) and EC50 (i.e., the effective counterion activator concentration required to reach Ymax/2) as the relevant parameters to measure the efficiency of the counterion activators.
10 mg of L-α-phosphatidylcholine (95%) (Egg, Chicken) were dissolved in 1 ml of chloroform. The solution was evaporated under a nitrogen stream, under rotation, to form a thin lipid film in the bottom of the flask. This film was left to dry under vacuum for a minimum of 1h. After drying the maximum of the solvent from the solution, 1 ml of the solution to incorporate (CF 50 mM in 5 mM phosphate buffer for EYPC-LUV⊃CF and only phosphate buffer 5 mM pH 7.4, for the LUVs with no encapsulation) was added to the thin film and the lipids were left to resuspend under agitation, in a 40 °C bath, for 30 min. The resuspended lipid mixture was then submitted to 10 freeze-thaw cycles and extruded 23 times through a 100 nm membrane, to obtain uniform, monodisperse liposomes with high encapsulation of the added solution. The liposomes were then separated from the molecules that were not encapsulated by size-exclusion chromatography, with Sephadex G25 (V = 37 ml), obtaining two fractions, one with high turbidity and a clear one, corresponding to the encapsulated and free sensor, respectively. The samples were then analyzed by Dynamic Light Scattering (DLS) to determine the average size of the liposomes in solution and their size distribution.
All assays were done up to 48h after the preparation of the vesicles to ensure their integrity and majority of CF still encapsulated.
EC50 and Ymax calculation. For the measurement of 1 and 2’s effectiveness as a counterion activators of polyarginine transport, dye efflux assays were executed at several counterion activator concentrations, while maintaining the concentration of peptide and LUV fixed as indicated in the respective figures.
For the dye efflux assays, CF emission was followed throughout the assay, with consecutive additions of the elements of the solution – the initial solution presented only the vesicles at a fixed concentration. A counterion activator aliquot is then added according to the concentration to be tested and the emission is measured to confirm that CF remains encapsulated; some counterion activators can act as detergents at sufficient concentrations. Finally, the peptide in question is added and fluorescence spectra are measured […]
until the emission stabilizes and a maximum of release is reached. If the counterion activator has the capacity to activate the transport, CF should be co-transported to the exterior of the liposome with the influx of the counterion-peptide complex. Finally, Triton X-100 is added to the solution to dissolve the […]

[2] = tested on: R4; experiment: Indicator displacement assay with host:LCG reporter pair, guest R4; type: binding; conditions: association constant, competitive dye displacement with LCG, 5 mM phosphate buffer pH 7.3, mean ± SD of triplicate
Description: (§1) The binding affinity of the anionic calixarene activators toward cationic peptides was investigated using a small library of highly hydrophilic oligoarginines, from 3 to 8 residues. These peptides are not able to spontaneously transverse zwitterionic artificial membranes in vesicle assays, which allows the accurate evaluation of the calixarenes 1 and 2 as counterion activators without interferences from the transport of the peptide alone.[43]−[45] First, the formation of host–guest complexes between 1/2 and the selected peptides was verified by indicator displacement assays using lucigenin (LCG) as the fluorescent indicator.[46] As previously reported for other sulfonatocalixarene derivatives,[46] the formation of host–guest binding pairs between calixarenes 1/2 in the E- and Z-forms and LCG results in significant static fluorescence quenching (see Figure 2A and Figures S26 and S27). Quantitative analysis of the fluorescence titration data using a 1:1 host:guest binding model allows the determination of the respective binding constants (K) reported in Table 1. As can be observed, both 1/2 display high affinity for the LCG dye, on the 10^7 M^–1 range, which seems to be independent of the nature and conformation of the azobenzene arm. […] The host:LCG binding pairs were then employed in the above-mentioned indicator displacement assays to investigate the binding affinity of oligoarginines toward 1 and 2 (see Figure 2B and Figures S29–S33).
(§2) The binding affinities of the counterion activators and peptide complexes were analyzed by indicator displacement assays. The fluorescent dye chosen for these experiments was lucigenin (LCG) due to its complex with the receptor SC4 being well characterized and due to the high variation of emission between its bound and free form. Firstly, the affinity for LCG was calculated for each of the activators, by titrations followed by fluorescence spectroscopy leading to almost full quenching of the emission. For the competitive assays, a concentration of LCG and activator was chosen in order to have approximately 90% of complexed dye and that mixture was then titrated with each of the peptides, leading to the regaining of emission when LCG was release from the complex.
(§3) Figure S26 - Fluorescence titration of the lucigenin dye with increasing concentrations of A) E-1 and B) Z–1 in water (5 mM phosphate buffer pH 7.3). LCG concentration was fixed 0.2 µM in all experiments, except for the first E-1 titrations were [LCG]
(§4) (1 picture or pasted object on this page, not shown here)
(§5) Figure S29 - Indicator displacement titration of the several oligoarginines A) R3 B) R4 C) R6 and D) R8, using SC4:LCG as the reporter pair (5 mM phosphate buffer pH 7.3). LCG and SC4 concentrations were fixed at A) 0.22 and 0.50 µM, for all three replicates, B) 0.22 and 4.7 µM for the first titration and 0.22 and 4.3 µM for the remaining two replicates, C) 0.22 and 0.45 µM and 1.1 and 0.85 µM and D) 0.28 and 0.43 µM and 1.1 and 0.85 µM, respectively, from left to right.
(§6) Figure S30 - Indicator displacement titration of the several oligoarginines A) R3 B) R4 C) R6 and D) R8, using E-1:LCG as the reporter pair (5 mM phosphate buffer pH 7.3) LCG and E-1 concentrations were fixed at A) 0.11 and 0.25 µM, for all three replicates, B) 0.22 and 0.5 µM, for the first two titrations and 0.22 and 0.23 µM for the remaining replicate, C) 4.0 and 3.8 µM and 0.22 and 0.5 µM, D) 4 and 3 µM and 0.22 and 0.5 µM, respectively, from left to right. […]

[3] = tested on: R3; experiment: Indicator displacement assay with host:LCG reporter pair, guest R3; type: binding; conditions: association constant, competitive dye displacement with LCG, 5 mM phosphate buffer pH 7.3, mean ± SD of triplicate
Description: as §1, §2, §3, §4, §5, §6

[4] = tested on: hexaarginine (R6); experiment: Indicator displacement assay with host:LCG reporter pair, guest R6; type: binding; conditions: association constant, competitive dye displacement with LCG, 5 mM phosphate buffer pH 7.3; only the lower limit can be estimated
Description: as §1
Figure 2 (A) Fluorescence titration of the lucigenin dye (LCG, 1.5 μM) with increasing concentrations of E-2 in water (5 mM phosphate buffer, pH 7.3). […]
(§7) The binding affinities of the counterion activators and peptide complexes were analyzed by indicator displacement assays. […] Firstly, the affinity for LCG was calculated for each of the activators, by titrations followed by fluorescence spectroscopy leading to almost full quenching of the emission. […]
(§8) Figure S26 - Fluorescence titration of the lucigenin dye with increasing concentrations of A) E-1 and B) Z–1 in water (5 mM phosphate buffer pH 7.3). […]

[5] = tested on: R8; experiment: Indicator displacement assay with host:LCG reporter pair, guest R8; type: binding; conditions: association constant, competitive dye displacement with LCG, 5 mM phosphate buffer pH 7.3; only the lower limit can be estimated
Description: as §1, §7, §8

[6] = Photochemical characterisation (UV–vis absorption, 1H NMR) and thermal Z→E isomerization; type: physicochemical
Description: The photochromic properties of 1 and 2 were investigated in diluted aqueous solution by UV–vis absorption spectroscopy and in CD3OD by ^1H NMR.
On the other hand, irradiation of the Z-forms at λirr = 500 nm originates a photostationary state (PSS) composed of 70 and 80% of E-1 (Φ1Z → E = 0.6) and E-2 (Φ2Z → E = 0.5), respectively (Figure 1 and Figure S23). As generally observed for other azobenzene photoswitches,[42] the E isomers can be quantitatively recovered in the dark through the thermal Z → E isomerization, with 1 and 2 presenting activation energies of 215 and 93 kJ/mol, respectively (Figures S24 and S25).

SMILES: N=C(N)NCCC[C@H](NC(=O)[C@H](CCCNC(=N)N)NC(=O)[C@H](CCCNC(=N)N)NC(=O)[C@H](CCCNC(=N)N)NC(=O)[C@H](CCCNC(=N)N)NC(=O)[C@@H](N)CCCNC(=N)N)C(N)=O [R6, hexaarginine, reference compound]
CF transport out of the liposomes on addition of peptide alone [1]: did not activate the transport of CF

SMILES: N=C(N)NCCC[C@H](NC(=O)[C@H](CCCNC(=N)N)NC(=O)[C@H](CCCNC(=N)N)NC(=O)[C@H](CCCNC(=N)N)NC(=O)[C@H](CCCNC(=N)N)NC(=O)[C@H](CCCNC(=N)N)NC(=O)[C@H](CCCNC(=N)N)NC(=O)[C@@H](N)CCCNC(=N)N)C(N)=O [R8, reference compound]
CF transport out of the liposomes on addition of peptide alone [1]: did not activate the transport of CF

Apparent affinity constant K for R4 [2]: (2.7 ± 0.4) × 10^8 M^–1
Apparent affinity constant K for R3 [3]: (5.5 ± 0.3) × 10^6 M^–1
Apparent affinity constant K for R6 [4]: >1 × 10^9 ^a M^–1
Apparent affinity constant K for R8 [5]: >1 × 10^9 ^a M^–1
SMILES: O=S(=O)(O)c1cc2c(O)c(c1)Cc1cc(S(=O)(=O)O)cc(c1O)Cc1cc(S(=O)(=O)O)cc(c1O)Cc1cc(S(=O)(=O)O)cc(c1O)C2 [SC4, sulfonatocalix[4]arene, reference compound]

SMILES: CCCCc1ccc(N=Nc2ccc(OCCCOc3c4cc(S(=O)(=O)[O-])cc3Cc3cc(S(=O)(=O)[O-])cc(c3O)Cc3cc(S(=O)(=O)[O-])cc(c3O)Cc3cc(S(=O)(=O)[O-])cc(c3O)C4)cc2)cc1.[Li+].[Li+].[Li+].[Li+] [compound 2]
Activation energy of thermal Z → E isomerization ([6]; in the dark): 22.2 kcal/mol
Conversion of the E isomer into the Z-form ([6]; irradiation at 366 nm): quantitative conversion
Photoisomerization quantum yield Φ E → Z ([6]; irradiation at 366 nm, diluted aqueous solution): 0.4
Photoisomerization quantum yield Φ Z → E ([6]; irradiation at 500 nm): 0.5
CF fluorescence signal (vesicle leakage) on addition of counterion activator alone ([1]; in the absence of peptides, EYPC-LUV⊃CF): does not affect the intensity of the fluorescence signal
